Target: T1, IgE-Tb / soluble IgE receptor FcεRIα with a Y131A mutation (Homo sapiens, UniProt P01854, N146Q/N252Q)
T1 construct: fused on or other part: Terbium chelate (LanthaScreen amine-reactive) on IgE-Fc; Alexa Fluor 488 hydrazide on the oxidised glycans of sFcεRIα; Both are labels and no part of the key
Test: in vitro FRET assay: binding of IgE-Tb to receptor FcεRIα-Y131A-AF488 and its inhibition by compounds
Conditions: 5 nM IgE-Tb, 25 nM FcεRIα-Y131A-AF488, 2 hours at room temperature; read-out: FRET IC50 range

T1 sequence (P01854 104-427 N146Q/N252Q): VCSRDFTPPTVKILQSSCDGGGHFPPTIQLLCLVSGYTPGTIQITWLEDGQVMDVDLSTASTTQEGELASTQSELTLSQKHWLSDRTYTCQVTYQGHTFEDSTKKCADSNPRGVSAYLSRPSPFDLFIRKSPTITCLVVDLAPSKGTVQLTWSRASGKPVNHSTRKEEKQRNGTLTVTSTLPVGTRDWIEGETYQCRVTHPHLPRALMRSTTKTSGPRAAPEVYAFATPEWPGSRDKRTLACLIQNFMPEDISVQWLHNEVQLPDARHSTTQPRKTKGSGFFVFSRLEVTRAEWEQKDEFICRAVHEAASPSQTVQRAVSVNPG
T1 sequence (P12319 26-201 Y156A partner): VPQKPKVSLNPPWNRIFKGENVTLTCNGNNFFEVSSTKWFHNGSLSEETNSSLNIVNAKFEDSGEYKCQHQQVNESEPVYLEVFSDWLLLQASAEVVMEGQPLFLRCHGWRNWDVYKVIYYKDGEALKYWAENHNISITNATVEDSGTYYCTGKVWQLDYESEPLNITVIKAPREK

`CC(C)CNS(=O)(=O)c1c2c(cc3cnc(C4CC4)cc13)C[C@H](Nc1nncn1-c1cccnc1)C2` (single isomer, unassigned) [Example 3, (7R*)-3-cyclopropyl-N-(2-methylpropyl)-7-[(4-pyridin-3-yl-1,2,4-triazol-3-yl)amino]-7,8-dihydro-6H-cyclopenta[g]isoquinoline-5-sulfonamide [* or S]] and `CC(C)CNS(=O)(=O)c1c2c(cc3cnc(C4CC4)cc13)CC(Nc1nncn1CC1CC1)C2` (stereo not shown) [Example 5, 3-cyclopropyl-7-[[4-(cyclopropylmethyl)-1,2,4-triazol-3-yl]amino]-N-(2-methylpropyl)-7,8-dihydro-6H-cyclopenta[g]isoquinoline-5-sulfonamide] fall in the same range of IC50: 10 to 50 nM for the first, 10 to 50 nM for the second.

First: Cn1nnc(-c2ccc(N[C@@H]3Cc4cc5cnc(C6CC6)cc5c(S(=O)(=O)NC5CC(F)C5)c4C3)cn2)n1 (stereo partly drawn) [Example 1, (7R)-3-cyclopropyl-N-(3-fluorocyclobutyl)-7-[[6-(2-methyltetrazol-5-yl)pyridin-3-yl]amino]-7,8-dihydro-6H-cyclopenta[g]isoquinoline-5-sulfonamide]
Second: Cn1nnc(-c2ccc(NC3Cc4cc5cnc(C6CC6)cc5c(S(=O)(=O)NCC5(F)COC5)c4C3)cn2)n1 (stereo not shown) [Example 13, 3-cyclopropyl-N-[(3-fluorooxetan-3-yl)methyl]-7-[[6-(2-methyltetrazol-5-yl)pyridin-3-yl]amino]-7,8-dihydro-6H-cyclopenta[g]isoquinoline-5-sulfonamide]
The IC50 of the first is lower: 1 to 10 nM for the first, 10 to 50 nM for the second. The first is the more potent here.

First: CC(C)CNS(=O)(=O)c1c2c(cc3cnc(C4CC4)cc13)CC1(c3ncc(-c4cccnc4)[nH]3)CC21 (stereo not shown) [Example 2, 13-cyclopropyl-˜{N}-(2-methylpropyl)-6-(5-pyridin-3-yl-1˜{H}-imidazol-2-yl)-12-azatetracyclo[8.4.0.0^{3,8}.0^{4,6}]tetradeca-1,3 (8),9,11,13-pentaene-2-sulfonamide]
Second: CC(C)(F)CNS(=O)(=O)c1c2c(cc3cnc(C4CC4)cc13)CC(Nc1cncnc1Nc1cccnc1)C2 (stereo not shown) [Example 18, 3-cyclopropyl-N-(2-fluoro-2-methylpropyl)-7-[[4-(pyridin-3-ylamino)pyrimidin-5-yl]amino]-7,8-dihydro-6H-cyclopenta[g]isoquinoline-5-sulfonamide]
The IC50 of the first is higher: 10 to 50 nM for the first, 1 to 10 nM for the second. The second is the more potent here.

First: CC(C)CNS(=O)(=O)c1c2c(cc3cnc(C4CC4)cc13)CC(NC1=CC(=O)CC1)C2 (stereo not shown) [Example 4, 3-cyclopropyl-N-(2-methylpropyl)-7-[(3-oxocyclopenten-1-yl)amino]-7,8-dihydro-6H-cyclopenta[g]isoquinoline-5-sulfonamide]
Second: CC(C)(F)CNS(=O)(=O)c1c2c(cc3cnc(C4CC4)cc13)CC(NC1=CC(=O)CCC1)C2 (stereo not shown) [Example 7, 3-cyclopropyl-N-(2-fluoro-2-methylpropyl)-7-[(3-oxocyclohexen-1-yl)amino]-7,8-dihydro-6H-cyclopenta[g]isoquinoline-5-sulfonamide]
The IC50 of the first is lower: 10 to 50 nM for the first, 50 to 100 nM for the second.

First: CC(C)(F)CNS(=O)(=O)c1c2c(cc3cnc(C4CC4)cc13)CC(NC(=O)c1cccnc1)C2 (stereo not shown) [Example 6, N-[3-cyclopropyl-5-[(2-fluoro-2-methylpropyl)sulfamoyl]-7,8-dihydro-6H-cyclopenta[g]isoquinolin-7-yl]pyridine-3-carboxamide]
Second: CC(C)(F)CNS(=O)(=O)c1c2c(cc3cnc(C4CC4)cc13)C[C@@H](Nc1ccc(C(N)=O)nc1)C2 [Example 11, 5-[[(7R)-3-cyclopropyl-5-[(2-fluoro-2-methylpropyl)sulfamoyl]-7,8-dihydro-6H-cyclopenta[g]isoquinolin-7-yl]amino]pyridine-2-carboxamide]
The IC50 of the first is higher: 50 to 100 nM for the first, 10 to 50 nM for the second. The second is the more potent here.

First: CCOC(=O)c1ncn([C@H]2Cc3cc4cnc(C5CC5)cc4c(S(=O)(=O)NCC(C)(C)F)c3C2)c1N [Example 8, ethyl 5-amino-1-[(7S)-3-cyclopropyl-5-[(2-fluoro-2-methylpropyl)sulfamoyl]-7,8-dihydro-6H-cyclopenta[g]isoquinolin-7-yl]imidazole-4-carboxylate]
Second: CC(C)(F)CNS(=O)(=O)c1c2c(cc3cnc(C4CC4)cc13)C[C@@H](Nc1ccc(C(=O)O)nc1)C2 [Example 15, 5-[[(7R)-3-cyclopropyl-5-[(2-fluoro-2-methylpropyl)sulfamoyl]-7,8-dihydro-6H-cyclopenta[g]isoquinolin-7-yl]amino]pyridine-2-carboxylic acid]
The IC50 of the first is higher: 100 to 2000 nM for the first, 10 to 50 nM for the second.

First: CC1(CNS(=O)(=O)c2c3c(cc4cnc(C5CC5)cc24)CC(C(=O)Nc2cccnc2)C3)COC1 (stereo not shown) [Example 9, 3-cyclopropyl-5-[(3-methyloxetan-3-yl)methylsulfamoyl]-N-pyridin-3-yl-7,8-dihydro-6H-cyclopenta[g]isoquinoline-7-carboxamide]
Second: Cn1cc2c(NC3Cc4cc5cnc(C6CC6)cc5c(S(=O)(=O)NCC5(O)COC5)c4C3)cncc2n1 (stereo not shown) [Example 14, 3-cyclopropyl-N-[(3-hydroxyoxetan-3-yl)methyl]-7-[(2-methylpyrazolo[3,4-c]pyridin-4-yl)amino]-7,8-dihydro-6H-cyclopenta[g]isoquinoline-5-sulfonamide]
The IC50 of the first is higher: 100 to 2000 nM for the first, 10 to 50 nM for the second.

Compared with `Cc1ccc(Oc2cncc(N[C@@H]3Cc4cc5cnc(C6CC6)cc5c(S(=O)(=O)NCC(C)(C)F)c4C3)c2)cn1` [Example 10, (7R)-3-cyclopropyl-N-(2-fluoro-2-methylpropyl)-7-[[5-(6-methylpyridin-3-yl)oxypyridin-3-yl]amino]-7,8-dihydro-6H-cyclopenta[g]isoquinoline-5-sulfonamide], `COc1cc(Oc2cncc(N[C@@H]3Cc4cc5cnc(C6CC6)cc5c(S(=O)(=O)NCC(C)(C)F)c4C3)c2)ccn1` [Example 16, (7R)-3-cyclopropyl-N-(2-fluoro-2-methylpropyl)-7-[[5-(2-methoxypyridin-4-yl)oxypyridin-3-yl]amino]-7,8-dihydro-6H-cyclopenta[g]isoquinoline-5-sulfonamide] is higher in IC50: 1 to 10 nM for the first, 50 to 100 nM for the second.

First: CC(C)(F)CNS(=O)(=O)c1c2c(cc3cnc(C4CC4)cc13)C[C@@H](Nc1ccc(CO)nc1)C2 [Example 12, (7R)-3-cyclopropyl-N-(2-fluoro-2-methylpropyl)-7-[[6-(hydroxymethyl)pyridin-3-yl]amino]-7,8-dihydro-6H-cyclopenta[g]isoquinoline-5-sulfonamide]
Second: CC(C)(F)CNS(=O)(=O)c1c2c(cc3cnc(C4CC4)cc13)CC(Nc1ccc(N3CC(C)(O)C3)nc1)C2 (stereo not shown) [Example 27, 3-cyclopropyl-N-(2-fluoro-2-methylpropyl)-7-[[6-(3-hydroxy-3-methylazetidin-1-yl)pyridin-3-yl]amino]-7,8-dihydro-6H-cyclopenta[g]isoquinoline-5-sulfonamide]
The IC50 of the first is lower: 10 to 50 nM for the first, 100 to 2000 nM for the second. The first is the more potent here.

Compared with `CC(O)CNS(=O)(=O)c1c2c(cc3cnc(C4CC4)cc13)CCC2` (stereo not shown) [Example 17, 3-cyclopropyl-N-(2-hydroxypropyl)-7,8-dihydro-6H-cyclopenta[g]isoquinoline-5-sulfonamide], `CC(C)CNS(=O)(=O)c1c2c(c(N)c3cnc(C4CC4)cc13)CCC2` [Example 21, 9-amino-3-cyclopropyl-N-(2-methylpropyl)-7,8-dihydro-6H-cyclopenta[g]isoquinoline-5-sulfonamide] is lower in IC50: 100 to 2000 nM for the first, 50 to 100 nM for the second. The second is the more potent here.

`CC(C)(F)CNS(=O)(=O)c1c2c(cc3cnc(C4CC4)cc13)CC(Nc1cncnc1NCC1CC1)C2` (stereo not shown) [Example 19, 3-cyclopropyl-7-[[4-(cyclopropylmethylamino)pyrimidin-5-yl]amino]-N-(2-fluoro-2-methylpropyl)-7,8-dihydro-6H-cyclopenta[g]isoquinoline-5-sulfonamide] and `COc1ccc(NC2Cc3cc4cnc(C5CC5)cc4c(S(=O)(=O)NCC(C)(C)F)c3C2)nn1` (stereo not shown) [Example 28, 3-cyclopropyl-N-(2-fluoro-2-methylpropyl)-7-[(6-methoxypyridazin-3-yl)amino]-7,8-dihydro-6H-cyclopenta[g]isoquinoline-5-sulfonamide] fall in the same range of IC50: 10 to 50 nM for the first, 10 to 50 nM for the second.

`CC(C)(F)CNS(=O)(=O)c1c2c(cc3cnc(C4CC4)cc13)CC(Nc1nc3ccccc3[nH]1)C2` (stereo not shown) [Example 20, 7-(1H-benzimidazol-2-ylamino)-3-cyclopropyl-N-(2-fluoro-2-methylpropyl)-7,8-dihydro-6H-cyclopenta[g]isoquinoline-5-sulfonamide] and `CC(C)(F)CNS(=O)(=O)c1c2c(cc3c(F)nc(C4CC4)cc13)CC(Nc1ccc(C(N)=O)nc1)C2` (stereo not shown) [Example 23, 5-[[3-cyclopropyl-1-fluoro-5-[(2-fluoro-2-methyl-propyl)sulfamoyl]-7,8-dihydro-6H-cyclopenta[g]isoquinolin-7-yl]amino]pyridine-2-carboxamide] fall in the same range of IC50: 10 to 50 nM for the first, 10 to 50 nM for the second.

Compared with `CC(=O)Nc1c2c(c(S(=O)(=O)NCC(C)C)c3cc(C4CC4)ncc13)CCC2` [Example 22, N-[3-cyclopropyl-5-(2-methylpropylsulfamoyl)-7,8-dihydro-6H-cyclopenta[g]isoquinolin-9-yl]acetamide], `COC(=O)c1ccc(NC2Cc3cc4c(F)nc(C5CC5)cc4c(S(=O)(=O)NCC(C)(C)F)c3C2)cn1` (stereo not shown) [Example 24, methyl 5-[[3-cyclopropyl-1-fluoro-5-[(2-fluoro-2-methyl-propyl)sulfamoyl]-7,8-dihydro-6H-cyclopenta[g]isoquinolin-7-yl]amino]pyridine-2-carboxylate] is lower in IC50: 100 to 2000 nM for the first, 10 to 50 nM for the second. The second is the more potent here.

Compared with `COc1nc(C2CC2)cc2c(S(=O)(=O)NCC(C)(C)F)c3c(cc12)CC(Nc1ccc(C2(O)COC2)nc1)C3` (stereo not shown) [Example 26, 3-cyclopropyl-N-(2-fluoro-2-methylpropyl)-7-[[6-(3-hydroxyoxetan-3-yl)pyridin-3-yl]amino]-1-methoxy-7,8-dihydro-6H-cyclopenta[g]isoquinoline-5-sulfonamide], `Cn1ncc(NC2Cc3cc4c(F)nc(C5CC5)cc4c(S(=O)(=O)NCC(C)(C)F)c3C2)cc1=O` (stereo not shown) [Example 29, 3-cyclopropyl-1-fluoro-N-(2-fluoro-2-methyl-propyl)-7-[(1-methyl-6-oxo-pyridazin-4-yl)amino]-7,8-dihydro-6H-cyclopenta[g]isoquinoline-5-sulfonamide] is lower in IC50: 100 to 2000 nM for the first, 10 to 50 nM for the second.

Reference: patent US12577228B2, “Dihydrocyclopenta-isoquinoline-sulfonamide derivatives compounds” (UCB Biopharma SRL, priority 2019, dated 2026)
